Laboratory results taken from PMC12117998, “First Steps toward the Design of Peptides that Influence the Intracellular Palmitoylation Machinery” (Chembiochem, 2025).
No end group written: not given here.

Columns and labels:
HeLa cells = experiment: Cell viability assay (resazurin); assay type: cell-based; settings: 24 h, CF‐labeled peptides, n = 3 (Figure 3A)
Procedure: (§1) HeLa (13,000), MDA‐MB‐231 (26,000), HFF‐1 (16,000) cells, mEGFP‐HRas (18,000), and SW480 and SW620 (15,000) were seeded into a 96‐well plate. Cells were treated with suitable peptide concentrations diluted in the corresponding serum‐free culture medium. After 24 h incubation under standard growth conditions, the cells were washed once with PBS. The positive control was treated for 10 min with 70% EtOH. To test the viability, cells were treated with a resazurin solution (In Vitro Toxicology Assay Kit, resazurin based, Sigma) and incubated for a further 1–2 h. The product resorufin was measured at 595 nm (λex = 550 nm) on an infinite M200 plate reader (Tecan) and normalized to the untreated negative control cells.

HeLa mEGFP‐HRas cells = experiment: Cell viability assay (resazurin); assay type: cell-based; settings: 24 h, n = 3 (Figure S11A)
Procedure: as §1

MDA‐MB‐231 = experiment: Cell viability assay (resazurin); assay type: cell-based; settings: MDA‐MB‐231, 24 h, CF‐labeled peptides, n = 3 (Figure 3B)
Procedure: as §1

HFF‐1 cells = experiment: Cell viability assay (resazurin); assay type: cell-based, human; settings: HFF‐1, 24 h, CF‐labeled peptides, n = 3 (Figure 3C)
Procedure: as §1

human 6His‐ZDHHC7 = target: T1, human 6His‐ZDHHC7 (Homo sapiens, UniProt Q9NXF8); experiment: In vitro palmitoylation assay (LC‐MS); assay type: biochemical; settings: 50 μM CF‐labeled peptide, 37 °C, LC‐MS (Figure 4)
T1 construct: 6His; purchased Proteintech
T1 sequence (Q9NXF8 1-308): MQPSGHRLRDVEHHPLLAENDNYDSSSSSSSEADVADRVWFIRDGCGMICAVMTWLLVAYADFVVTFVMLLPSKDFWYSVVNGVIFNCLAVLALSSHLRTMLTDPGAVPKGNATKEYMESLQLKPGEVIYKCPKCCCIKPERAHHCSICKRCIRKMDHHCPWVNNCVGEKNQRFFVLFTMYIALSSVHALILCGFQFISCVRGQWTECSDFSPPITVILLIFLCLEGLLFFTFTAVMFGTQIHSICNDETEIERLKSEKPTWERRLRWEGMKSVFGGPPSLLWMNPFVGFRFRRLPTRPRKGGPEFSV
Procedure: The 50 μM CF‐labeled peptides were incubated with 100 nM human 6His‐ZDHHC7 (Proteintech) and 100 μM palmitoyl‐CoA (Santa Cruz Biotechnology) in reaction buffer (50 mM HEPES, 150 mM NaCl, 1 mM EDTA, 1 mM (tris(2‐carboxyethyl)phosphine) (TCEP), 0.3 mM DDM, pH 7.0) for 2 h at 37 °C. Control reactions without ZDHHC7 or palm‐CoA were incubated with the appropriate volume of reaction buffer. Afterward, the reaction was centrifuged for 5 min at 13000 rpm. The precipitate was dissolved in DMSO/ACN (3:2, v/v). To enrich the peptide from the supernatant, C8 ZipTips were used. All samples were analyzed on the LC MS‐8060 triple quadrupole ESI‐MS (Shimadzu). The fluorescence intensity (λex = 493 nm, λem = 517 nm) of the samples was measured on an EC 160/2 NUCLEODUR 300‐5 C18 ec column using linear gradients from 20% to 70 % ACN in ddH2O + 0.1% FA over 7 min.

mEGFP‐HRas = experiment: Fluorescence microscopy of mEGFP‐HRas localization; assay type: cell-based; settings: HeLa mEGFP‐HRas cells, doxycycline-induced, 100 μM peptide, 6 h, n = 3 (Figure 8A)
Text: mEGFP‐HRas was amplified from a plasmid gifted from Karel Svoboda^[ [69] ^] (Addgene plasmid # 18662) using the primers 5′‐gcgGGTACCgccaccatggtgagcaagg‐3′ and 5′‐gcgGCGGCCGCtcaggagagcacacactt‐3′. KpnI and NotI restriction sites (capital letter) were used and the construct was cloned into the pcDNA5 FRT‐TO vector to generate an inducible T‐REx‐HeLa cell line using the Flp‐In T‐REx System (Invitrogen). The plasmid was verified by sequencing. The construct was co‐transfected together with the pOG44 vector using the FuGENE HD transfection reagent (Promega). Positive clones were selected with DMEM medium supplemented with 10% FCS, 500 μg ml^−1 penicillin/streptomycin 100 μg ml^−1 hygromycin and 10 μg ml^−1 blasticidin and verified by fluorescence microscopy and immunoblot.
A total of 35,000 HeLa mEGFP‐HRas cells were seeded into an 8‐well plate. Cells were induced with […] ml^−1 doxycycline and incubated for around 15 h under standard growth conditions. Afterward, cells were treated for 6 h with 100 μM peptide diluted in serum‐free medium. And, 10 min prior to the end of the incubation time, the Hoechst 33342 nuclear dye was added. Cells were washed with serum‐free media. Finally, complete medium was added and cells were imaged on the UltraView VoX Spinning Disk Confocal Microscope (Perkin Elmer) on a 60X oil objective at 37 °C and 5% CO2. Images were cropped and processed using Fiji.

Substance: GLRKRLRKFRNKKMDHHCPW-NH2 [DC‐2, CPP sC18* fused to the DHHC motif derived from ZDHHC2/3/6/7/15/16/20]
- cytotoxicity (cell viability) (HeLa cells): most active peptide
- cytotoxicity at 100 μM (HeLa mEGFP‐HRas cells): did not harm the cells
- cytotoxicity (cell viability) (MDA‐MB‐231): most active peptide
- cytotoxicity (cell viability) (HFF‐1 cells): most active peptide
- palmitoylation in presence of ZDHHC7 (human 6His‐ZDHHC7; 100 nM ZDHHC7, 100 μM palmitoyl‐CoA, pH 7.0, 2 h): palmitoylated
- palmitoylation in absence of ZDHHC7 (auto‐palmitoylation) (human 6His‐ZDHHC7; 100 μM palmitoyl‐CoA, no ZDHHC7, pH 7.0, 2 h): auto‐palmitoylation
- HRas localization (mEGFP‐HRas): altered HRas pattern
